For 21 compounds, IC50 results are on record in US12091425B2 (AMGEN INC., priority 2016, dated 2024).

Experiment [1] concerns OPM-2 human multiple myeloma cell line. Nature of the experiment: Cell Viability Assay (OPM-2 10 FBS). The format is cell-based. As to conditions: OPM-2 cells, CellTiter-Glo. In a few lines:
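ATP-based luminescence (CellTiter-Glo) measured after a 16 h compound treatment of OPM-2 cells seeded at 3000 cells/well in 10% FBS medium. IC50 values derived by 4-parameter logistic fitting of serial dilutions.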
Background: In ATP-based viability assays light output follows the ATP content of the culture.

Experiment [2] concerns the target T1, Mcl-1/Bim interaction, recombinant human Mcl-1 (171-327) (Homo sapiens, UniProt Q07820).
T1 construct: made in house
The experiment is described as follows: Cell free Mcl-1: Bim Affinity Assay (Mcl-1 HTRF). It counts as binding. The method, boiled down: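 Read-out is time-resolved FRET after overnight incubation, using a biotin-labelled peptide from human Bim (51-76) as the binding partner; IC50 was derived from competition curves.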
On the technique in general: Time-resolved FRET reads energy transfer from a long-lived donor to a nearby acceptor.

[3] abbreviates: Homo sapiens, OPM-2, 16 h, 16 h incubation.
[4] abbreviates: TR-FRET, 0.1 nM Mcl-1 (171-327), 0.05 nM biotin-Bim (51-76).
The mark [5] stands for this setting: Homo sapiens, OPM-2, 16 h, 16 h.
[6] abbreviates: cell free Mcl-1:Bim TR-FRET, recombinant human Mcl-1 (171-327).

T1 sequence (Q07820 171-327): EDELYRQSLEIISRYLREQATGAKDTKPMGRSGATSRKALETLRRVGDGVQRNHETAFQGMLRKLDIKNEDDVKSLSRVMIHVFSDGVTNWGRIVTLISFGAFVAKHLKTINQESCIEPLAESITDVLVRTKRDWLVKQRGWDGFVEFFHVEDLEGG

For orientation: IC50 means the concentration that inhibits the measured activity by half. On to `C[C@@H]1[C@@H](C)S(=O)(=O)NC(=O)c2ccc3c(c2)N(C[C@@H]2CC[C@H]2[C@@H](OCC(=O)O)/C=C/[C@@H]1C)C[C@@]1(CCCc2cc(Cl)ccc21)CO3` [Example 1051, (((1S,3′R,6′R,7′S,8′E,10′S,11′S,12′R)-6-chloro-10′,11′,12′-trimethyl-13′,13′-dioxido-15′-oxo-3,4-dihydro-2H-spiro[naphthalene-1,22′-[20]oxa[13]thia[1,14]diazatetracyclo[14.7.2.0^3,6.0^19,24]pentacosa [8,16,18,24]tetraen]-7′-yl)oxy)acetic Acid], for which the IC50 was found to be 1900 nM in experiment [1] (setting [3]) and 0.0197 nM in experiment [2] (setting [4]).
`COC[C@H](O)CN1[C@@H](C)C/C=C/[C@H](O)[C@@H]2CC[C@H]2CN2C[C@@]3(CCCc4cc(Cl)ccc43)COc3ccc(cc32)C(=O)NS1(=O)=O` [Example 687, (1S,3′R,6′R,7′S,8′E,11′S)-6-chloro-7′-hydroxy-12′-((2R)-2-hydroxy-3-methoxypropyl)-11′-methyl-3,4-dihydro-2H,15′H-spiro[naphthalene-1,22′-[20]oxa[13]thia[1,12,14]triazatetracyclo[14.7.2.0^3,6.0^19,24]pentacosa[8,16,18,24]tetraen]-15′-one 13′,13′-dioxide]: the IC50 in experiment [1] (setting [5]) amounted to 148 nM; in experiment [2] (setting [6]), 0.207 nM.
As to `CC(C)CC1CC(C)C=CC(O)C2CCC2CN2CC3(CCCc4cc(Cl)ccc43)COc3ccc(cc32)C(=O)NS1(=O)=O` (single isomer, unassigned) [Example 482], the results for the IC50 in experiment [1] (setting [5]) and in experiment [2] (setting [6]) were 7640 nM and 7.52 nM, respectively.
In the same order, the values of `C[C@@H]1[C@@H](C)C/C=C/[C@H](OCCN2CCC2)[C@@H]2CC[C@H]2CN2C[C@@]3(CCCc4cc(Cl)ccc43)COc3ccc(cc32)C(=O)NS1(=O)=O` [Example 526, (1S,3′R,6′R,7′S,8′E,11′S,12′R)-7′-(2-(1-azetidinyl)ethoxy)-6-chloro-11′,12′-dimethyl-3,4-dihydro-2H,15′H-spiro[naphthalene-1,22′-[20]oxa[13]thia[1,14]diazatetracyclo[14.7.2.0^3,6.0^19,24]pentacosa [8,16,18,24]tetraen]-15′-one 13′,13′-dioxide 2,2,2-trifluoroacetic Acid] are 862 nM and 1.06 nM.
In the case of `COCCNC(=O)CO[C@H]1/C=C/C[C@H](C)[C@@H](C)S(=O)(=O)NC(=O)c2ccc3c(c2)N(C[C@@H]2CC[C@H]21)C[C@@]1(CCCc2cc(Cl)ccc21)CO3` [Example 298, 2-(((1S,3′R,6′R,7′S,8′E,11′S,12′R)-6-chloro-11′,12′-dimethyl-13′,13′-dioxido-15′-oxo-3,4-dihydro-2H-[spiro[naphthalene-1,22′-20]oxa[13]thia[1,14]diazatetracyclo[14.7.2.0^3,6.0^19,24]pentacosa [8,16,18,24]tetraen]-7′-yl)oxy)-N-(2-methoxyethyl)acetamide], the IC50 in experiment [1] (setting [5]) turned out to be 860 nM; in experiment [2] (setting [4]) it was 0.425 nM.
On to `CC1C=CC(O)C2CCC2CN2CC3(CCCc4cc(Cl)ccc43)COc3ccc(cc32)C(=O)NS(=O)(=O)CC1C` (single isomer, unassigned) [Example 1061], for which the values for the IC50 in experiment [1] (setting [3]) and in experiment [2] (setting [4]) were 1110 nM and 0.711 nM, respectively.
For the compound `C[C@@H]1[C@@H](C)C/C=C/[C@H](OCC(=O)N2CC(C)(O)C2)[C@@H]2CC[C@H]2CN2C[C@@]3(CCCc4cc(Cl)ccc43)COc3ccc(cc32)C(=O)NS1(=O)=O` [Example 305, (1S,3′R,6′R,7′S,8′E,11′S,12′R)-6-chloro-7′-(2-(3-hydroxy-3-methyl-1-azetidinyl)-2-oxoethoxy)-11′,12′-dimethyl-3,4-dihydro-2H,15′H-spiro[naphthalene-1,22′-[20]oxa[13]thia[1,14]diazatetracyclo[14.7.2.0^3,6.0^19,24]pentacosa [8,16,18,24]tetraen]-15′-one 13′,13′-dioxide], the IC50 in experiment [1] (setting [5]) came to 998 nM; in experiment [2] (setting [4]) it was 0.177 nM.
For the compound `CO[C@H](C)C[C@@H]1[C@@H](C)C/C=C/[C@H](OC)[C@@H]2CC[C@H]2CN2C[C@@]3(CCCc4cc(Cl)ccc43)COc3ccc(cc32)C(=O)NS1(=O)=O` (single isomer, unassigned) [Example 535], the IC50 in experiment [1] (setting [5]) stood at 162 nM; in experiment [2] (setting [6]), 0.389 nM.
Turning to `O=C1NS(=O)(=O)[C@H](Cc2ccccc2)C/C=C/[C@H](O)[C@@H]2CC[C@H]2CN2C[C@@]3(CCCc4cc(Cl)ccc43)COc3ccc1cc32` (single isomer, unassigned) [Example 646], the IC50 in experiment [1] (16 h) was found to be 23700 nM; in experiment [2] (setting [6]), 45.3 nM.
Consider `CNC(=O)C[C@@H]1/C=C/[C@@H]2CC[C@H]2CN2C[C@@]3(CCCc4cc(Cl)ccc43)COc3ccc(cc32)C(=O)NS(=O)(=O)[C@H](C)[C@@H](C)C1` [Example 1073, 2-((1S,3′R,6′S,7′E,9′R,11′S,12′R)-6-chloro-11′,12′-dimethyl-13′,13′-dioxido-15′-oxo-3,4-dihydro-2H-spiro[naphthalene-1,22′-[20]oxa[13]thia[1,14]diazatetracyclo[14.7.2.0^3,6.0^19,24]pentacosa [7,16,18,24]tetraen]-9′-yl)-N-methylacetamide], for which the values for the half-maximal inhibitory concentration (IC50) in experiment [1] (setting [3]) and in experiment [2] (setting [4]) were 1120 nM and 0.617 nM, respectively.
As for `CC1CC(C)CS(=O)(=O)NC(=O)c2ccc3c(c2)N(CC2CCC2C(O)C1)CC1(CCCc2cc(Cl)ccc21)CO3` (single isomer, unassigned) [Example 270], the IC50 in experiment [1] (16 h) was determined as 116 nM; in experiment [2] (setting [4]), 1.03 nM.
Take `C[C@@H]1[C@@H](C)S(=O)(=O)NC(=O)c2ccc3c(c2)N(C[C@@H]2CC[C@H]2[C@@H](OCCN2CCOCC2)/C=C/[C@@H]1C)C[C@@]1(CCCc2cc(Cl)ccc21)CO3` [Example 1049, (1S,3′R,6′R,7′S,8′E,10′S,11′S,12′R)-6-chloro-10′,11′,12′-trimethyl-7′-(2-(4-morpholinyl)ethoxy)-3,4-dihydro-2H,15′H-spiro[naphthalene-1,22′-[20]oxa[13]thia[1,14]diazatetracyclo[14.7.2.0^3,6.0^19,24]pentacosa [8,16,18,24]tetraen]-15′-one 13′,13′-dioxide]: the IC50 amounted to 126 nM in experiment [1] (setting [3]) and 0.264 nM in experiment [2] (setting [4]).
For `O=C1NS(=O)(=O)C/C=C/[C@]2(O)CCO[C@@H](C2)[C@@H]2CC[C@H]2CN2C[C@@]3(CCCc4cc(Cl)ccc43)COc3ccc1cc32` (single isomer, unassigned) [Example 918], the IC50 came to 15100 nM in experiment [1] (16 h) and 2.75 nM in experiment [2] (setting [6]).
In the same order, the values of `COC(=O)C[C@@H]1CC/C=C/[C@H](OC)[C@@H]2CC[C@H]2CN2C[C@@]3(CCCc4cc(Cl)ccc43)COc3ccc(cc32)C(=O)NS1(=O)=O` [Example 624] are 455 nM and 0.338 nM.
With `O=C(O)CO[C@@H]1/C=C/CCCS(=O)(=O)NC(=O)c2ccc3c(c2)N(C[C@@H]2CC[C@H]21)C[C@@]1(CCCc2cc(Cl)ccc21)CO3` [Example 218, (((1S,3′R,6′R,7′R,8′E)-6-chloro-13′,13′-dioxido-15′-oxo-3,4-dihydro-2H-spiro[naphthalene-1,22′-[20]oxa[13]thia[1,14]diazatetracyclo[14.7.2.0^3,6.0^19,24]pentacosa [8,16,18,24]tetraen]-7′-yl)oxy)acetic acid], the IC50 in experiment [1] (setting [5]) was found to be 3670 nM; in experiment [2] (setting [4]), 0.216 nM.
In the same order, the values of `CO[C@H]1/C=C/[C@H](CC#N)C[C@@H](C)S(=O)(=O)NC(=O)c2ccc3c(c2)N(C[C@@H]2CC[C@H]21)C[C@@]1(CCCc2cc(Cl)ccc21)CO3` [Example 203, ((1S,3′R,6′R,7′S,8′E,10′R,12′R)-6-chloro-7′-methoxy-12′-methyl-13′,13′-dioxido-15′-oxo-3,4-dihydro-2H-spiro[naphthalene-1,22′-[20]oxa[13]thia[1,14]diazatetracyclo[14.7.2.0^3,6.0^19,24]pentacosa [8,16,18,24]tetraen]-10′-yl)acetonitrile] are 2790 nM and 0.366 nM.
For the compound `COC1C=CCCC(C(=O)N(C)C)S(=O)(=O)NC(=O)c2ccc3c(c2)N(CC2CCC21)CC1(CCCc2cc(Cl)ccc21)CO3` (single isomer, unassigned) [Example 453], the concentration for half-maximal inhibition (IC50) in experiment [1] (16 h) came to 21000 nM; in experiment [2] (setting [4]), 6.73 nM.
For `COCC(O)CC1CCC=CC(OC)C2CCC2CN2CC3(CCCc4cc(Cl)ccc43)COc3ccc(cc32)C(=O)NS1(=O)=O` (single isomer, unassigned) [Example 658], the IC50 stood at 259 nM in experiment [1] (setting [5]) and 0.285 nM in experiment [2] (setting [6]).
In the case of `CC[C@@H]1[C@@H](C)C/C=C/[C@H](OCCOC)[C@@H]2CC[C@H]2CN2C[C@@]3(CCCc4cc(Cl)ccc43)COc3ccc(cc32)C(=O)NS1(=O)=O` [Example 740, (1S,3′R,6′R,7′S,8′E,11′S,12′R)-6-chloro-12′-ethyl-7′-(2-methoxyethoxy)-11′-methyl-3,4-dihydro-2H,15′H-spiro[naphthalene-1,22′-[20]oxa[13]thia[1,14]diazatetracyclo[14.7.2.0^3,6.0^19,24]pentacosa [8,16,18,24]tetraen]-15′-one-13′, 13′-dioxide], the IC50 in experiment [1] (setting [5]) turned out to be 170 nM; in experiment [2] (setting [6]), 0.543 nM.
Regarding `C[C@H]1/C=C/[C@H](O)[C@@H]2CC[C@H]2CN2C[C@@]3(CCCc4cc(Cl)ccc43)COc3ccc(cc32)C(=O)NS(=O)(=O)CC1` (single isomer, unassigned) [Example 491], the results for the IC50 in experiment [1] (16 h) and in experiment [2] (setting [6]) were 3480 nM and 0.774 nM, respectively.
In the same order, the values of `CC(C)C[C@@H]1C[C@@H](C)/C=C/[C@H](O)[C@@H]2CC[C@H]2CN2C[C@@]3(CCCc4cc(Cl)ccc43)COc3ccc(cc32)C(=O)NS1(=O)=O` (single isomer, unassigned) [Example 480] are 1080 nM and 0.394 nM.
